# From patent US5807535A, “Metal complexes of hydroxyaryl containing aminocarboxylic acid chelating agents” (Australian Nuclear Science & Technology Organisation, priority 1992, dated 1998)
# Like-named read-outs stand apart in the source and are kept apart here.
# Key:
# [1] = Biodistribution of 99mTc complexes in rats; type: in vivo, Australian Albino Wistar Rats; details: rat, rats; for tissue uptake at 0.5 min: 30 sec; for tissue uptake at 0.05 h: 3 min
# Procedure, shortened: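 Chelators were dissolved in basic saline, brought to about pH 6 with HCl, and reduced with excess stannous chloride before one equivalent volume of sodium 99mTcO4 (10-50 mCi/ml) was added, giving roughly 1 mg/ml chelator. Labelling efficacy was checked by ITLC-SG. Complexes were diluted in saline to 15 μCi/100 μl for rat biodistribution, with tissue uptake expressed as %ID/g.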
# [2] = Biodistribution of 67Ga complexes in mice; type: in vivo, balb/c mice
# Procedure, shortened: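 Ligand labelled with 67Ga citrate at pH 12, 40 °C for 40 min, diluted in saline and filter-sterilised. Balb/c mice given ~3.7×10^5 Bq intravenously via tail vein; five animals sacrificed at each of six time points.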
# [3] = blood, read-out: biodistribution blood
# [4] = bone, read-out: biodistribution bone
# [5] = brain, read-out: biodistribution brain
# [6] = eyes, read-out: biodistribution eyes
# [7] = heart, read-out: biodistribution heart
# [8] = kidneys, read-out: biodistribution kidneys
# [9] = liver, read-out: biodistribution liver
# [10] = lungs, read-out: biodistribution lungs
# [11] = muscle, read-out: biodistribution muscle
# [12] = pancreas, read-out: biodistribution pancreas
# [13] = skin, read-out: biodistribution skin
# [14] = spleen, read-out: biodistribution spleen
# [15] = stomach, read-out: biodistribution stomach
# [16] = tail, read-out: biodistribution tail
# [17] = thymus, read-out: biodistribution thymus
# [18] = thyroid, read-out: biodistribution thyroid
# [19] = total git, read-out: biodistribution tot GIT
compound,measurement,setting,value
Nc1ccc(O)c(NC(=O)CN(CCN(CC(=O)O)CC(=O)Nc2cc(N)ccc2O)CC(=O)O)c1 [Compound 5],tissue uptake at 0.5 min,[1]; [3],4.92 %ID/g
same,tissue uptake at 1 min,[1]; [3],4.22 %ID/g
same,tissue uptake at 0.05 h,[1]; [3],3.26 %ID/g
same,tissue uptake at 5 min,[1]; [3],3.13 %ID/g
same,tissue uptake at 10 min,[1]; [3],2.59 %ID/g
same,tissue uptake at 0.5 min,[1]; [4],0.37 %ID/g
same,tissue uptake at 1 min,[1]; [4],0.45 %ID/g
same,tissue uptake at 0.05 h,[1]; [4],0.42 %ID/g
same,tissue uptake at 5 min,[1]; [4],0.37 %ID/g
same,tissue uptake at 10 min,[1]; [4],0.36 %ID/g
same,tissue uptake at 0.5 min,[1]; [5],0.2 %ID/g
same,tissue uptake at 1 min,[1]; [5],0.22 %ID/g
same,tissue uptake at 0.05 h,[1]; [5],0.16 %ID/g
same,tissue uptake at 5 min,[1]; [5],0.17 %ID/g
same,tissue uptake at 10 min,[1]; [5],0.14 %ID/g
same,tissue uptake at 0.5 min,[1]; [6],0.17 %ID/g
same,tissue uptake at 1 min,[1]; [6],0.23 %ID/g
same,tissue uptake at 0.05 h,[1]; [6],0.19 %ID/g
same,tissue uptake at 5 min,[1]; [6],0.18 %ID/g
same,tissue uptake at 10 min,[1]; [6],0.18 %ID/g
same,tissue uptake at 0.5 min,[1]; [7],1.81 %ID/g
same,tissue uptake at 1 min,[1]; [7],1.62 %ID/g
same,tissue uptake at 0.05 h,[1]; [7],1.24 %ID/g
same,tissue uptake at 5 min,[1]; [7],1.15 %ID/g
same,tissue uptake at 10 min,[1]; [7],1.06 %ID/g
same,tissue uptake at 0.5 min,[1]; [8],4.35 %ID/g
same,tissue uptake at 1 min,[1]; [8],5.7 %ID/g
same,tissue uptake at 0.05 h,[1]; [8],4.7 %ID/g
same,tissue uptake at 5 min,[1]; [8],6.04 %ID/g
same,tissue uptake at 10 min,[1]; [8],3.61 %ID/g
same,tissue uptake at 0.5 min,[1]; [9],1.11 %ID/g
same,tissue uptake at 1 min,[1]; [9],0.97 %ID/g
same,tissue uptake at 0.05 h,[1]; [9],0.83 %ID/g
same,tissue uptake at 5 min,[1]; [9],0.79 %ID/g
same,tissue uptake at 10 min,[1]; [9],0.69 %ID/g
same,tissue uptake at 0.5 min,[1]; [10],1.66 %ID/g
same,tissue uptake at 1 min,[1]; [10],1.69 %ID/g
same,tissue uptake at 0.05 h,[1]; [10],1.31 %ID/g
same,tissue uptake at 5 min,[1]; [10],1.25 %ID/g
same,tissue uptake at 10 min,[1]; [10],1.17 %ID/g
same,tissue uptake at 0.5 min,[1]; [11],0.25 %ID/g
same,tissue uptake at 1 min,[1]; [11],0.3 %ID/g
same,tissue uptake at 0.05 h,[1]; [11],0.27 %ID/g
same,tissue uptake at 5 min,[1]; [11],0.25 %ID/g
same,tissue uptake at 10 min,[1]; [11],0.23 %ID/g
same,tissue uptake at 0.5 min,[1]; [12],0.8 %ID/g
same,tissue uptake at 1 min,[1]; [12],0.73 %ID/g
same,tissue uptake at 0.05 h,[1]; [12],0.55 %ID/g
same,tissue uptake at 5 min,[1]; [12],0.56 %ID/g
same,tissue uptake at 10 min,[1]; [12],0.43 %ID/g
same,tissue uptake at 0.5 min,[1]; [13],0.31 %ID/g
same,tissue uptake at 1 min,[1]; [13],0.38 %ID/g
same,tissue uptake at 0.05 h,[1]; [13],0.43 %ID/g
same,tissue uptake at 5 min,[1]; [13],0.41 %ID/g
same,tissue uptake at 10 min,[1]; [13],0.46 %ID/g
same,tissue uptake at 0.5 min,[1]; [14],0.83 %ID/g
same,tissue uptake at 1 min,[1]; [14],0.98 %ID/g
same,tissue uptake at 0.05 h,[1]; [14],0.83 %ID/g
same,tissue uptake at 5 min,[1]; [14],0.83 %ID/g
same,tissue uptake at 10 min,[1]; [14],0.72 %ID/g
same,tissue uptake at 0.5 min,[1]; [15],0.47 %ID/g
same,tissue uptake at 1 min,[1]; [15],0.42 %ID/g
same,tissue uptake at 0.05 h,[1]; [15],0.36 %ID/g
same,tissue uptake at 5 min,[1]; [15],0.37 %ID/g
same,tissue uptake at 10 min,[1]; [15],0.24 %ID/g
same,tissue uptake at 0.5 min,[1]; [16],0.22 %ID/g
same,tissue uptake at 1 min,[1]; [16],0.14 %ID/g
same,tissue uptake at 0.05 h,[1]; [16],0.17 %ID/g
same,tissue uptake at 5 min,[1]; [16],0.15 %ID/g
same,tissue uptake at 10 min,[1]; [16],0.19 %ID/g
same,tissue uptake at 0.5 min,[1]; [17],0.63 %ID/g
same,tissue uptake at 1 min,[1]; [17],0.56 %ID/g
same,tissue uptake at 0.05 h,[1]; [17],0.45 %ID/g
same,tissue uptake at 5 min,[1]; [17],0.54 %ID/g
same,tissue uptake at 10 min,[1]; [17],0.39 %ID/g
same,tissue uptake at 0.5 min,[1]; [18],1.85 %ID/g
same,tissue uptake at 1 min,[1]; [18],2.43 %ID/g
same,tissue uptake at 0.05 h,[1]; [18],1.59 %ID/g
same,tissue uptake at 5 min,[1]; [18],1.73 %ID/g
same,tissue uptake at 10 min,[1]; [18],1.71 %ID/g
same,tissue uptake at 0.5 min,[1]; [19],0.35 %ID/g
same,tissue uptake at 1 min,[1]; [19],0.34 %ID/g
same,tissue uptake at 0.05 h,[1]; [19],0.31 %ID/g
same,tissue uptake at 5 min,[1]; [19],0.29 %ID/g
same,tissue uptake at 10 min,[1]; [19],0.27 %ID/g
same,biodistribution urine,[2]; 1 min,6.30 % ID
same,biodistribution urine,[2]; 3 min,8.94 % ID
same,biodistribution urine,[2]; 5 min,15.34 % ID
same,biodistribution urine,[2]; 10 min,14.23 % ID
same,biodistribution urine,[2]; 30 min,7.76 % ID
same,biodistribution urine,[2]; 120 min,3.55 % ID
